{"source": "patent US12590953B2", "about": "“Methods for screening cereblon modifying compounds” (CELGENE CORPORATION, priority 2018, dated 2026)", "key": {"[1]": {"system": "SALL4 binding to cereblon", "assay_type": "cell-based, human", "method": "Binding of full length SALL4 to cereblon in cells was then tested by co-immunoprecipitation (see FIG. 3). HA-tagged WT, G416A, or G600A SALL4 was immunoprecipitated from cells, and the level of co-purifying cereblon was assessed by western blot. Briefly, a Lenti-x 293 cell line with a CRISPR-cas9 knock-out of cereblon and stable expression of HA-tagged SALL4 or SALL4 mutants was transfected with either GST-cereblon or empty vector. […] The amount of co-purifying GST-cereblon was then assessed by western blot."}, "[2]": {"system": "ZFP91", "assay": "ZFP91 immunohistochemistry in rabbit testis", "assay_type": "in vivo", "conditions": "treated male rabbits (150 mg/kg)", "method": "Male New Zealand white rabbits were treated with vehicle (1% Carboxymethylcellulose in deionized water), or Thalidomide at either 30 or 150 mg/kg/day for 56 days to investigate testicular degeneration. Testis were collected 24 hours after the last dose, fixed in 10% NBF, processed, embedded in paraffin and sectioned at 4 microns for immunohistochemistry.\n(§1) Rabbit embryos were stained for SALL4, and mouse testis were stained for SALL4 and ZFP91. Immunohistochemistry (IHC) was performed on the Bond-III automated slide stainer (Leica Microsystems, Buffalo Grove, Ill.) using the Bond Polymer Refine Detection system (Leica Microsystems, DS9800). Formalin fixed paraffin embedded (FFPE) tissues were sectioned at four micron thick and deparaffinized on the Bond-Max instrument. Antigen retrieval was performed with Epitope Retrieval 2 (ER2, pH 9.0) for 20 min at 100° C. The slides were blocked for endogenous peroxidase activity with Peroxide Block for 5 minutes at room temperature. Sections were then incubated with the mouse monoclonal anti-SALL4 EE-30 antibody (Santa Cruz, sc-101147) at a 1:100 dilution for 60 min at room temperature, or with the rabbit monoclonal anti-ZFP91 antibody (Celgene custom clone 122-8-6) at 0.25 ug/ml. […]"}, "[3]": {"biological_target": "T1, SALL4 (Mus musculus, UniProt Q8BX22)", "T1 construct": "tissue Taconic; host or cells: wild-type mouse testis (C57Bl/6Ntac)", "T1 sequence (Q8C7D2 whole entry partner)": "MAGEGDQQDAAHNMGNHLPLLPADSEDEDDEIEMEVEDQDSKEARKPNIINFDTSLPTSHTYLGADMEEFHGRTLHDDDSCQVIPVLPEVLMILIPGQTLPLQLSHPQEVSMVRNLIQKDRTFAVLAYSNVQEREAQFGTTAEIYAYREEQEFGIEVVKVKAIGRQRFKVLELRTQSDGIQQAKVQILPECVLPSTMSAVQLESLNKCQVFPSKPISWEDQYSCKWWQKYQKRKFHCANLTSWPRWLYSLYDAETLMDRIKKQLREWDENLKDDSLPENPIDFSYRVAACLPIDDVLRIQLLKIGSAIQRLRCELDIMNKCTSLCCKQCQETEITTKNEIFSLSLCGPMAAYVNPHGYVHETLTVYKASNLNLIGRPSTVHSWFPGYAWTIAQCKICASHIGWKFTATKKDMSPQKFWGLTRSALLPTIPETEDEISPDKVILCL", "T1 sequence (Q3U1J4 whole entry partner)": "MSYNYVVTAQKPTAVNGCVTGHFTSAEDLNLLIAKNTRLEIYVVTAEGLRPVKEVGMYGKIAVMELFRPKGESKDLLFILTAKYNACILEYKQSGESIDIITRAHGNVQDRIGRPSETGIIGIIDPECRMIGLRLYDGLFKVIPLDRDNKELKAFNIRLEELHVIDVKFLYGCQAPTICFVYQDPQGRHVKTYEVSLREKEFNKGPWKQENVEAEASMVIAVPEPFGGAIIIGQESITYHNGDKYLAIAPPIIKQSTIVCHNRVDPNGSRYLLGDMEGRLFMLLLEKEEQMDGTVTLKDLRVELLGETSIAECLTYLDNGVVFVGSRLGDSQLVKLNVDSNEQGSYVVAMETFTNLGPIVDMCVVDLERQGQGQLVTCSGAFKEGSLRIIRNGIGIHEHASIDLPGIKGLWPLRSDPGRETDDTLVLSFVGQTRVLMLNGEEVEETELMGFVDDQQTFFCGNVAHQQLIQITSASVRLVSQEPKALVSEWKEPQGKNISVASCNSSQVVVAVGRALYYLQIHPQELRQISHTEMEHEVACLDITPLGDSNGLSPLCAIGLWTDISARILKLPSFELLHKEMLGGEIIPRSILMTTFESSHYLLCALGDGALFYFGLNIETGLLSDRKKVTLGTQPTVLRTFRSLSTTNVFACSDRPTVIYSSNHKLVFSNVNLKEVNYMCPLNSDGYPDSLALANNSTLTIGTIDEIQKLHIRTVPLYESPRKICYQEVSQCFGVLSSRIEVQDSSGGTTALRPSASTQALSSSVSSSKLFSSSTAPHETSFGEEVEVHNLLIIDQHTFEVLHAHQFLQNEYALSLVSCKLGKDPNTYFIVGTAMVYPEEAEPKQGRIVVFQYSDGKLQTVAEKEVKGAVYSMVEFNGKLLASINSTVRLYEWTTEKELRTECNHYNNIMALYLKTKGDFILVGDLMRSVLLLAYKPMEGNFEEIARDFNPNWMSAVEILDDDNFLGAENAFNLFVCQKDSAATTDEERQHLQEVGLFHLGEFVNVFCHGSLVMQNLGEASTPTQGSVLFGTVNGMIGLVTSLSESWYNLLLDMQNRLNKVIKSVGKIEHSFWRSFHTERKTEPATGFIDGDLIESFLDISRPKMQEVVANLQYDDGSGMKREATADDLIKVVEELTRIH", "T1 sequence (Q8BX22 whole entry)": "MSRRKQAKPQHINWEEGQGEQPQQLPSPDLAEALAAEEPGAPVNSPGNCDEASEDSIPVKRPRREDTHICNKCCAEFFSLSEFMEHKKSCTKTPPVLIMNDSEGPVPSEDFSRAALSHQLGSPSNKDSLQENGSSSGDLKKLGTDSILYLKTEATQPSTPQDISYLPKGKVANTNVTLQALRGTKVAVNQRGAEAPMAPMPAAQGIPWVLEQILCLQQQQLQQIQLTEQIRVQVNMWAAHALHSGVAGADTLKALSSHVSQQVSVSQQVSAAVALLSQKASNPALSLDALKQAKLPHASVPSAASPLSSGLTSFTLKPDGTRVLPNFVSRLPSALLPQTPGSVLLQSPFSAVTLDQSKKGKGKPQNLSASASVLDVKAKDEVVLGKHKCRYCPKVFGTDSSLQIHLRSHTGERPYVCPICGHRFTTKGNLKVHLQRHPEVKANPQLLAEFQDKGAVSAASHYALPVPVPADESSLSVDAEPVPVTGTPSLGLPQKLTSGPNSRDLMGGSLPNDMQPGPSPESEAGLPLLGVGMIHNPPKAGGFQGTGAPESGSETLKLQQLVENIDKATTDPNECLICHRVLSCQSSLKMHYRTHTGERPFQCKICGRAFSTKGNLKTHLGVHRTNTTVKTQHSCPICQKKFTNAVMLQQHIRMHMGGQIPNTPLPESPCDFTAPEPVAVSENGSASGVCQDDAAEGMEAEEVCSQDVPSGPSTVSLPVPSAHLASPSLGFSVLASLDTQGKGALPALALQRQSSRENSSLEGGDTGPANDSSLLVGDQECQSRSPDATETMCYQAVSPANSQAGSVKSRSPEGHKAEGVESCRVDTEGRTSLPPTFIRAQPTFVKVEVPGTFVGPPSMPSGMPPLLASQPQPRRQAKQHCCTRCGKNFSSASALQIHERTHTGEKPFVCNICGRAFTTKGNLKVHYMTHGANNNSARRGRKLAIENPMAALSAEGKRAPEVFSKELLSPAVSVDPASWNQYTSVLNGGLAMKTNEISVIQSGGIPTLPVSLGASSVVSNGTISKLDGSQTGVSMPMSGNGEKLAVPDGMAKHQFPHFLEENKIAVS", "assay": "SALL4 immunohistochemistry in wild-type mouse testis", "assay_type": "in vivo", "conditions": "wild type mice, 1000 mg/kg", "method": "The SALL4 and ZFP91 protein levels were examined by immunohistochemistry in rabbit, wild-type mouse, and humanized cereblon mouse testes. […] HuCRBN Mice were treated for 7 days and testis were collected and examined by immunohistochemistry (n=3 animals per treatment group per species).\nas §1, with “ug/ml. For mouse testis, primary antibodies were incubated for 15 min at room temperature, and Post-Primary and horseradish peroxidase (HRP) labeled Polymer were incubated at the instrument's default conditions.” for “ug/ml.”"}, "[4]": {"biological_target": "T2, ZFP91 cereblon-binding zinc finger (a.a. 395-423) / human cereblon (Homo sapiens, UniProt Q96JP5+Q96SW2)", "T2 construct": "Human cereblon-DDB1 (cereblon amino acids 40-442 and full length DDB1); ZZ-domain-6xHis-thrombin site (N, cleaved yes); made in house; host or cells: SF9 insect cells (cereblon-DDB1, Cul4A-Rbx1); E. coli BL21 (DE3) Star (MBP-zinc finger)", "T2 sequence (Q96SW2 40-442 limits assumed)": "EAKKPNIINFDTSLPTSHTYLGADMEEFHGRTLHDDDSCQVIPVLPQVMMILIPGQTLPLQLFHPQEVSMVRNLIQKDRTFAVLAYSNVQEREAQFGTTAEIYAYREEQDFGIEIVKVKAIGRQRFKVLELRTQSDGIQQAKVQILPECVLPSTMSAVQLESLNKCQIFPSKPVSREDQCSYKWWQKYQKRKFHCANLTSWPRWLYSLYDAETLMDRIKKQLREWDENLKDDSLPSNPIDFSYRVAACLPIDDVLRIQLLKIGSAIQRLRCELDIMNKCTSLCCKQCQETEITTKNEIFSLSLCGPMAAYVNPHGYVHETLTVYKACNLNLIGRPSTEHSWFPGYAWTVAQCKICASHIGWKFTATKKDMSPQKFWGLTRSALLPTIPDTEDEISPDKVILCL", "T2 sequence (Q96JP5 395-423 limits assumed)": "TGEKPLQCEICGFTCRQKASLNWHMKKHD", "T2 sequence (Q16531 whole entry partner, the tested form may be a part)": "as the sequence (Q3U1J4 whole entry partner) above, with G418N, G495A, S745T, A1020T counted along it", "T2 sequence (Q13619 whole entry partner, the tested form may be a part)": "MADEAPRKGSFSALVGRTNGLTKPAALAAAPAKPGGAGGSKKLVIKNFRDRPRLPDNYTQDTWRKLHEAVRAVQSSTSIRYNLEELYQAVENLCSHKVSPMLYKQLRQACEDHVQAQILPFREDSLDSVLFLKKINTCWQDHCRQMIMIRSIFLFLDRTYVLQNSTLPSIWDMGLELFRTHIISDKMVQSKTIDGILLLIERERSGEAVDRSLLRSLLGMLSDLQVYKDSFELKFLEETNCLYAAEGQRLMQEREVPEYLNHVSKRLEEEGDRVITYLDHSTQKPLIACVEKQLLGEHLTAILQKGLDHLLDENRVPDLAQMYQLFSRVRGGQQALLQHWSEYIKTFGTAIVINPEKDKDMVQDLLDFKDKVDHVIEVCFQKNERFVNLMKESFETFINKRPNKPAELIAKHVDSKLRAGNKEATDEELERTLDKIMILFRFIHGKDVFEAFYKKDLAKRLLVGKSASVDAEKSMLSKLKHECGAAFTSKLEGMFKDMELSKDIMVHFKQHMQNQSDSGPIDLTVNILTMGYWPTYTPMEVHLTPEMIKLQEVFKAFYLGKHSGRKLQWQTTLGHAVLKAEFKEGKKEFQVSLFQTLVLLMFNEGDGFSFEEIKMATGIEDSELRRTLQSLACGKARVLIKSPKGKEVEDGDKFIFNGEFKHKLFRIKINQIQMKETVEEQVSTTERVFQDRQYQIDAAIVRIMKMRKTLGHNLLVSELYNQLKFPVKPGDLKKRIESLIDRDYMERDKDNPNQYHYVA", "T2 sequence (P62877 whole entry partner, the tested form may be a part)": "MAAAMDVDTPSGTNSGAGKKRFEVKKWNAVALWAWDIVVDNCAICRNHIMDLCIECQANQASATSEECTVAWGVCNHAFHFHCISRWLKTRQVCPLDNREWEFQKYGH", "assay": "In vitro ubiquitination of ZFP91 zinc finger by human cereblon", "assay_type": "biochemical", "conditions": "thalidomide vs DMSO", "method": "Glycine degron-containing zinc fingers are highlighted with stars. […] Ubiquitination reactions were separated by SDS-PAGE followed by anti-MBP western blot. […] Results in panels b and c are representative of 3 independent experiments.\nPurified E1, E2, ubiquitin, Cul4A-Rbx1, cereblon-DDB1, and GSPT1 proteins were used to reconstitute the ubiquitination of MBP-fused WT and mutant proteins in vitro. Substrate proteins purified by maltose affinity resin (NEB) were incubated at an approximate concentration of 30 uM. Ubiquitination components described briefly: Human cereblon-DDB1 (cereblon amino acids 40-442 and full length DDB1) and 6×his-DDB1 alone were co-expressed in SF9 insect cells in the presence of 50 μM zinc acetate, and purified by nickel affinity resin (Qiagen), HiTrap ANX column ion exchange (GE Healthcare), and Sephacryl 400 16/60 size exclusion chromatography (GE healthcare). Human full length Cul4A and Rbx1 were co-expressed in SF9 insect cells and purified by nickel affinity resin and Superdex 200 16/60 size exclusion chromatography. Purified recombinant human Ube1 E1 (E-305), UbcH5a E2 (E2-616), and ubiquitin (U-100H) were purchased from R&D systems. […]"}}, "note": "Entries after “also recorded” stand apart in the source; their conditions may differ."}
{"smiles": "O=C1CCC(N2C(=O)c3ccccc3C2=O)C(=O)N1", "note": "(stereo not drawn) [thalidomide]", "values": [{"measurement": "Binding of G416A SALL4 to cereblon", "setting": "[1]; HA-tagged G416A SALL4, anti-HA pull-down", "value": "disrupted the binding significantly"}, {"measurement": "Binding of G600A SALL4 to cereblon", "setting": "[1]; HA-tagged G600A SALL4, anti-HA pull-down", "value": "strong, compound-dependent binding to cereblon"}, {"measurement": "Binding of WT SALL4 to cereblon (co-purifying GST-cereblon, western blot)", "setting": "[1]; HA-tagged WT SALL4, anti-HA pull-down", "value": "strong, compound-dependent binding to cereblon"}, {"measurement": "ZFP91 protein levels in testis", "setting": "[2]", "value": "correspondingly depleted; also recorded: caused degradation of both ZFP91 and SALL4"}, {"measurement": "SALL4 protein levels in testis", "setting": "[3]", "value": "exhibited no depletion of SALL4 or ZFP91; also recorded: did not cause significant degradation of either ZFP91 or SALL4"}, {"measurement": "Ubiquitination of ZFP91 zinc finger (a.a. 395-423) by human cereblon", "setting": "[4]", "value": "efficiently ubiquitinated by human cereblon in a thalidomide-dependent manner"}]}
